One data set in a line: Solubility test. The settings on record: room temperature, water. Format: physicochemical.
Data set [1] can be described thus: Stability test in distilled water. The settings on record: 30 mg in 100 ml distilled water. Format: physicochemical.
In a further data set the test system is Male ICR mice. Kind of data set: Single dose toxicity in mice (LD50). The settings on record: single intraperitoneal dose, observed 14 days.

≈ marks a conversion by molar mass, not a printed value.

Protocol for Male ICR mice: The following experiment was performed in order to observe the degree of toxicity of the L-aspartate according to the present invention.
Male ICR mice were used as experimental animals. 5 male ICR mice were divided into 6 dose groups, respectively and fasted except for water for 24 hours.

As usually defined, the solubility is the concentration that dissolves in the medium under given conditions. Low values mean little dissolved substance, high ones much dissolved substance. In the case of `CON=C1CN(c2nc3c(cc2F)c(=O)c(C(=O)O)cn3C2CC2)C[C@@]1(C)CN.Cc1ccc(S(=O)(=O)O)cc1`, the solubility in “Solubility test” turned out to be 5.78 mg/mL. Also, in data set [1], the “Content (%) 60? (after 3 weeks)” value was 87.3%, the “Content (%) Initial” value is listed as 98.6% and the “Content (%) Room temperature (after 3 weeks)” value (shortened to “Content (%) Room temperature”) is recorded as 98.1%.
Regarding `CON=C1CN(c2nc3c(cc2F)c(=O)c(C(=O)O)cn3C2CC2)C[C@@]1(C)CN.O=CO` [Formate (Comparative Example 5)], the solubility in the data set “Solubility test” came to 27.5 mg/mL. Moreover, in data set [1], the “Content (%) 60? (after 3 weeks)” value is recorded as 75.1%, the “Content (%) Initial” value is on record as 89.7% and the “Content (%) Room temperature” value came out at 89.7%.
The compound `CON=C1CN(c2nc3c(cc2F)c(=O)c(C(=O)O)cn3C2CC2)C[C@@]1(C)CN` [Free form (Comparative Example 2)] had a solubility in “Solubility test” of 2.79 mg/mL (≈ 6.92 mM). Besides, in data set [1], the “Content (%) 60? (after 3 weeks)” value is listed as 34.6%, the “Content (%) Initial” value is 97.3% and the “Content (%) Room temperature” value was found to be 96.8%.
Taken in the same sequence, the figures for `CON=C1CN(c2nc3c(cc2F)c(=O)c(C(=O)O)cn3C2CC2)C[C@@]1(C)CN.CS(=O)(=O)O` [Methanesulfonate (Comparative Example 4)] were 99.1 mg/mL, 89.6%, 96.4% and 96.8%.
Consider `CON=C1CN(c2nc3c(cc2F)c(=O)c(C(=O)O)cn3C2CC2)C[C@@]1(C)CN.O=P(O)(O)O` [Phosphate (Comparative Example 6)], for which, in the data set “Solubility test”, the solubility came out at 57.8 mg/mL. In data set [1], the “Content (%) 60? (after 3 weeks)” value was 91.2%, the “Content (%) Initial” value is on record as 98.1% and the “Content (%) Room temperature” value was found to be 97.9%. Moreover, in the data set on Male ICR mice, the “Lethal dose 50” value was determined as 176 mg/kg.

The values above are taken from patent US9751840B2, “R-7-(3-aminomethyl-4-methoxyimino-3-methyl-pyrrolidin-1-yl)-1-cyclopropyl-6-fluoro-4-oxo-acid and L-aspartic acid salt, process for the preparation thereof and pharmaceutical composition comprising the same for antimicrobial” (ARIBIO CO. LTD., priority 2009, dated 2017).
